Test systems include HCC-2998 colon; HL-60(TB) leukemia; NCI-H23 lung; SR leukemia; UO-31 renal; NCI-H226 lung; DU-145 prostate; HS 578T breast; MDA-MB-231 breast; PC-3 prostate.
Common to all, as to assay: NCI-60 cell line screen, 48 h

Molecules are shown by their SMILES.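 Where inhibition never reached the appropriate level, the endpoint shown equals the highest concentration tested. Otherwise, values were interpolated linearly from a five-concentration, 48-hour dose response in 96-well plates. GI50 is the concentration that inhibits growth by half. TGI is the concentration that stops growth completely.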

In the case of `O=C(NOC(=O)c1ccc([N+](=O)[O-])cc1)c1ccc(Cl)cc1`, the TGI with HCC-2998 colon was more than 100 µM; with HL-60(TB) leukemia, 34.3 µM; in the assay with NCI-H23 lung, more than 100 µM; with SR leukemia, more than 100 µM; with UO-31 renal, more than 100 µM.

For the compound `Nc1nc(Cl)cc(NCCCCCCNc2cc(Cl)nc(N)n2)n1`, the TGI with HCC-2998 colon, with HL-60(TB) leukemia, in the assay on NCI-H226 lung, in the assay with NCI-H23 lung, in the assay on SR leukemia and with UO-31 renal was more than 100 µM throughout.

With `Cc1cc(N(CCC#N)CCC#N)ccc1/C=C/C(=O)Nc1ccccc1Cl`, the TGI in the assay on HCC-2998 colon, with HL-60(TB) leukemia, in the assay on NCI-H226 lung, in the assay with NCI-H23 lung and in the assay on UO-31 renal was more than 100 µM each time.

Turning to `O=C(O)C(Cc1c[nH]c2ccccc12)N1C(=O)c2ccccc2C1=O` (stereo not drawn), the TGI in the assay on DU-145 prostate, in the assay with HCC-2998 colon, in the assay on HS 578T breast, in the assay on MDA-MB-231 breast, in the assay on NCI-H226 lung and in the assay with NCI-H23 lung was more than 100 µM each time. The TGI in the assay with PC-3 prostate and in the assay with UO-31 renal was more than 100 µM each time.

As to `CCCCOP1(=O)C=CC(Cl)=C(C)C1` (stereo not drawn), the TGI in the assay on HL-60(TB) leukemia was 39.6 µM; with NCI-H226 lung it was 41.9 µM; with SR leukemia, 39.4 µM; in the assay on UO-31 renal, more than 100 µM.

On to `C=C(C[N+](C)(C)C)N/N=C/c1oc(-c2ccc(OC)c(OC)c2)c(-c2ccc(OC)c(OC)c2)c1[N+](=O)[O-]`, for which the TGI in the assay on DU-145 prostate was more than 100 µM; in the assay with HCC-2998 colon it was 35.5 µM; in the assay on HL-60(TB) leukemia, 33.9 µM; in the assay on NCI-H226 lung, 66.3 µM; with NCI-H23 lung, 44.7 µM; in the assay on SR leukemia, 23.9 µM. The TGI in the assay on UO-31 renal is 33.7 µM.

Take `Cc1ccc(-c2cc(C(Cl)Cl)on2)cc1`: the GI50 is 91.4 µM with DU-145 prostate; 62.9 µM with HL-60(TB) leukemia; more than 100 µM in the assay on HS 578T breast; more than 100 µM with MDA-MB-231 breast; 48.2 µM in the assay with NCI-H226 lung; 55.3 µM with NCI-H23 lung. In addition, the GI50 in the assay on PC-3 prostate was 49.9 µM; in the assay on UO-31 renal it was 49.5 µM. For the same compound, the TGI in the assay on DU-145 prostate, in the assay on HL-60(TB) leukemia, with HS 578T breast, in the assay on MDA-MB-231 breast, in the assay with NCI-H226 lung and in the assay on NCI-H23 lung was more than 100 µM in each case. Further, the TGI in the assay with PC-3 prostate and in the assay on UO-31 renal was more than 100 µM in each case.

Consider `COc1cc(-c2nn3c(=O)n(-c4ccc(Cl)cc4)c(=O)nc3s2)cc(OC)c1OC`, for which the GI50 in the assay with HCC-2998 colon is more than 50 µM; in the assay with HL-60(TB) leukemia, more than 100 µM; in the assay on NCI-H226 lung, more than 50 µM; in the assay with NCI-H23 lung it was more than 50 µM; in the assay with UO-31 renal, more than 50 µM. In addition, the TGI in the assay on HCC-2998 colon, in the assay on HL-60(TB) leukemia, with NCI-H226 lung, with NCI-H23 lung and in the assay with UO-31 renal was more than 100 µM in each case.

Turning to `O=C1[C@H]2ON(c3ccccc3)C(c3cccc([N+](=O)[O-])c3)[C@H]2C(=O)N1c1ccc(Cc2ccc(N3C(=O)[C@@H]4ON(c5ccccc5)C(c5cccc([N+](=O)[O-])c5)[C@@H]4C3=O)cc2)cc1` (stereo partly drawn), the TGI in the assay with HCC-2998 colon, in the assay with HL-60(TB) leukemia, in the assay with NCI-H226 lung, in the assay on NCI-H23 lung, with SR leukemia and with UO-31 renal was more than 100 µM in each case.

Turning to `CN1CCN(CCCOc2ccc3ncnc(Nc4ccc(Oc5cccc(F)c5)c(Cl)c4)c3c2)CC1`, the GI50 in the assay with DU-145 prostate is 1.31 µM; in the assay on HCC-2998 colon, 1.64 µM; in the assay with HL-60(TB) leukemia, 2.05 µM; with HS 578T breast it was 1.76 µM; with MDA-MB-231 breast, 1.7 µM; in the assay on NCI-H23 lung, 1.48 µM. Besides, the GI50 in the assay with PC-3 prostate was 1.68 µM; in the assay on UO-31 renal, 1.11 µM. Moreover, the TGI turned out to be 2.79 µM in the assay with DU-145 prostate; 3.06 µM with HCC-2998 colon; 4.17 µM with HL-60(TB) leukemia; 4.26 µM in the assay on HS 578T breast; 3.16 µM in the assay on MDA-MB-231 breast; 3.02 µM in the assay with NCI-H23 lung. The TGI with PC-3 prostate stood at 3.45 µM; in the assay with UO-31 renal, 2.3 µM.

For the compound `O=C(O)C(CS)N=Cc1nc(-c2ccccc2)oc1O` (stereo not drawn), the TGI in the assay with HCC-2998 colon, with HL-60(TB) leukemia, with NCI-H226 lung, in the assay on NCI-H23 lung, in the assay on SR leukemia and in the assay with UO-31 renal was more than 100 µM throughout.

As to `C=CCN(N=O)C(=O)ON1C(=O)CCC1=O`, the TGI in the assay with HCC-2998 colon, with HL-60(TB) leukemia, in the assay on NCI-H23 lung and with UO-31 renal was more than 100 µM throughout.

On to `COC(=O)C1=C(C(=O)OC)N(C(C)C)[C@H]2C(C(=O)OC)=C(C(=O)OC)N(C(C)C)[C@@H]12`, for which the TGI with HL-60(TB) leukemia, in the assay on NCI-H226 lung, in the assay with NCI-H23 lung, in the assay on SR leukemia and in the assay on UO-31 renal was more than 100 µM in each case.

Take `CCCC/C=C1\CCC(CN2CCCC2)C1=O` (stereo not drawn): the TGI in the assay on HCC-2998 colon was 33.7 µM; with HL-60(TB) leukemia, 31.4 µM; in the assay with NCI-H226 lung, 31.8 µM; in the assay on NCI-H23 lung, 32.1 µM; in the assay on SR leukemia, 24.5 µM; in the assay on UO-31 renal, 32.3 µM.

For `CC1(C)Oc2ccccc2N2O[C@@H]3C(=O)N(c4ccccc4)C(=O)[C@@H]3C21c1ccccc1` (stereo partly drawn), the TGI with HCC-2998 colon, in the assay on NCI-H226 lung, in the assay with NCI-H23 lung and in the assay on UO-31 renal was more than 100 µM throughout.

Take `CCC1(Cl)C(=O)NC(=O)N(C2CC(O)C(CO)O2)C1N=[N+]=[N-]` (stereo not drawn): the TGI with HCC-2998 colon, with HL-60(TB) leukemia, in the assay on NCI-H23 lung and in the assay on UO-31 renal was more than 100 µM in each case.

As for `BrC(Br)([P+](c1ccccc1)(c1ccccc1)c1ccccc1)[P+](c1ccccc1)(c1ccccc1)c1ccccc1`, the TGI in the assay on HCC-2998 colon is 31.8 µM; in the assay with HL-60(TB) leukemia, 54.3 µM; in the assay on NCI-H226 lung, 73 µM; with NCI-H23 lung, 34 µM; in the assay with SR leukemia it was 56 µM; in the assay with UO-31 renal, more than 100 µM.

Source of the values: PubChem BioAssay (NCI).
